Results published in patent publication US11541059B2, “Heterocyclic compounds and uses thereof” (Infinity Pharmaceuticals, Inc., priority 2014, dated 2023).

Columns and labels:
[1] = tested on: tumor cell inhibition of T cell proliferation; assay: Ex vivo T cell proliferation (CFSE) with CT26 tumor cells; format: in vivo, mouse; details: tumors from treated mice
Protocol: CT26 was an N-nitroso-N-methylurethane-(NNMU) induced, undifferentiated colon carcinoma cell line. It was cloned to generate the cell line designated CT26.WT (ATCC CRL-2638).
The duration of the study was 1 week under treatment. 5-6 week old female, Balb/c mice (Jackson Labs) implanted subcutaneously with 5×10^5 CT26 cells in 100 μl PBS. CT26 cells were cultured in RPMI supplemented with 10% FBS. Dosing commenced when tumors reached an average volume of 500-600 mm^3.
For group 3 (αPD-L1), the mice were dosed once, IP, 200 ug (200 uL from 1 mg/ml stock).
Mice were monitored daily for adverse clinical effects. Body weights and tumor luminescent were measured two times per week. At the end of the study, tumors were harvested and cut into 3 parts; one piece for CTL killing assay, one piece for CSFE proliferation assay and one piece (split into two) for OCT/FFPE.
Spleens from 3 vehicle treated tumor bearing mice were physically dissociated in T cell media and passed through a 70 micron filter. After red cell lysis, the cells were pooled, brought up in PBS and stained with CFSE (invitrogen). After washing, these cells were brought up in 20 ml T cell media. Half the cells received Dynal mouse activator beads (CD3/CD28 crosslinking at a 1:1 concentration). CD3/CD28 beads induce proliferation in splenocytes from tumor bearing mouse (data not shown). […]

[2] = tested on: collagen induced arthritis; assay: Rat collagen induced arthritis (CIA) model; details: FIG. 1
[3] = tested on: tumor growth; assay: Tumor growth with Compound BB alone or co-administered with 5-FU (FIG. 35); format: in vivo
[4] = tested on: 4T1 breast cancer; assay: Subcutaneous 4T1 breast cancer model; format: in vivo; details: co-administration with docetaxel, paclitaxel, or 5-FU
[5] = Target organ toxicity (TOT) study, 10 days oral; format: in vivo; details: rat
Protocol: A target organ toxicity (TOT) study was performed in rats. […] This study assessed clinical observations/mortality, body weights, clinical pathology, toxicokinetics, and histopathology of select tissues. The tissues studied were: Adrenal gland, Bone marrow (femur), Brain, Small Intestine (including GALT), Heart, Large Intestine, Kidney, Stomach, Liver, Pancreas, Spleen, Testis, and Thymus. Doses were selected based on repeat-dose tolerability study, PK and plasma protein binding, and cellular IC50s for PI3K isoforms. The doses selected were: high-dose: 50 mg/kg/day, expected to inhibit α, β, δ, and γ PI3K isoforms; Mid-high dose: 20 mg/kg/day, expected to inhibit β, δ, and γ PI3K isoforms; Mid-low dose: 7.5 mg/kg, expected to inhibit γ PI3K isoform only; and Low-dose: 1 mg/kg/day, expected to inhibit γ PI3K isoform only.

[6] = tested on: bone marrow cells differentiating into MDSCs (VEGF, ARG1); assay: Myeloid Derived Suppressor Cell differentiation assay; format: cell-based; details: FIG. 24A, 24B
Protocol: A similar experiment was performed on bone marrow cells differentiating into MDSCs.

[7] = tested on: spleen T cell proliferation; assay: Ex vivo T-cell proliferation assay with tumor-derived cells; format: cell-based, mouse
[8] = tested on: GL-261 tumors; assay: GL-261 glioma model with or without temozolomide; format: in vivo, mouse; details: 15 mg/kg QD PO from the start of treatment, vs vehicle
Protocol: TMZ was dosed IP 1×/day for 7 days.
Animals: C57 Albino mice (male) from Jackson Labs, n=80. Parameters Evaluated:
In life: Mice were dosed QD with Compound BB. Temozolomide was dosed QD IP, for 7 days. Tumor measurements and bodyweights were taken 2×/week, but caliper and xenogen measurements.
End point analysis: Tumors were cut in half. One half was cut in half again with ½ fixed in 10% NBF the other was frozen in OCT for frozen sections. The remaining half was processed to single cell suspension and evaluated by FACS.
PD satellite group—8 mice from the TMZ treated mice and 8 mice from the vehicle treated mice were sacrificed on day 7 post treatment. Tumors were processed to single cell suspension and evaluated by FACS.

[9] = Oral half-life; format: in vivo; details: plasma
Excerpt: Compound BB's oral exposure is high in rat, dog and monkey. Good oral bioavailability and low clearance in rodent and non-rodent animal species results in high oral exposure.

[10] = tested on: TAMs / CD206 in LLC tumor brei; assay: Flow cytometry of tumor-associated myeloid cells, LLC tumor brei; format: in vivo, mouse
Protocol: Flow cytometry was performed to obtain a more extensive cellular subset analysis. In particular, the study examined T cell vs. Myeloid cells, Myeloid cell subsets, Regulatory vs. effector T cells, and Tumor markers vs. WBC (e.g., PD-L1 expression on tumor).
Different populations of tumor-associated myeloid cells can be identified by flow cytometry, e.g., monocytic immature myeloid cells (iMC),Granulocytic iMCs/Neutrophils, Tumor Associated Macrophages (TAMs), and Granulocytic MDSCs. The different populations, and panels for detecting MDSCs, are described in Cancer Discovery 2011; 1:54-67. Tumors may vary in their myeloid cell composition.

[11] = tested on: differentiation of myeloid cells into M2 TAMs; assay: Murine M2 TAM differentiation (ARG1); format: cell-based, mouse; details: FIG. 22A, 22B
Excerpt: High ARG1 (Arginase-1) levels indicate that myeloid cells are differentiating into M2 macrophages, so lower ARG1 levels relative to a control indicate interference with differentiation into M2 macrophages. Expression of Arginase-1 depletes the tumor microenvironment of arginine, thereby promoting T cell death and NK cell inhibition. Schmid et. al., Proceedings: AACR 103rd Annual Meeting 2012, Cancer Research: Apr. 15, 2012; Volume 72, Issue 8, Supplement 1. […] M2 TAMs promote cancer cell survival (FIG. 23).

[12] = tested on: GL261-Luc tumors; assay: GL261-Luc murine glioblastoma subcutaneous model; format: in vivo, mouse; details: 15 mg/kg QD, PO, FIG. 47A
[13] = tested on: LLC tumor; assay: LLC tumor brei model with or without cyclophosphamide; format: in vivo, mouse; details: BB 15 mg/kg QD PO; cyclophosphamide 50 mg/kg EOD IP, FIG. 48
Protocol: In this experiment, treatment began when tumors reached approx. 150 mm^3—around day 12. Caliper and xenogen images were monitored. Treatment groups n=13-15/group. […] Samples for FACs analysis were collected on day 23 post implant. Using FACS, cells were assayed for the level of CD11b and Gr-1.

C[C@H](NC(=O)c1c(N)nn2cccnc12)c1cc2cccc(C#Cc3cnn(C)c3)c2c(=O)n1-c1ccccc1 [Compound BB]
Suppression of T cell proliferation by cells derived from CT26 tumors [1]: can release the suppression
Mean ankle diameter, day 9 to day 17 [2]: has therapeutic effects
tumor growth ([3]; Compound BB alone (FIG. 35)): reduction in tumor growth
tumor growth ([3]; co-administration of Compound BB and 5-FU (FIG. 35)): further reduction
tumor growth [4]: further reduction in tumor growth
Decrease in body weights compared to vehicle ([5]; high dose animals (50 mg/kg/day)): 5-8%
Histopathology, thymus ([5]; males ≥7.5 mg/kg/day, females 50 mg/kg/day): minimal/mild lymphoid depletion
Mortality and clinical signs ([5]; oral 10 days, any dose level): No mortality or clinical signs were observed
Tolerability, TOT study ([5]; oral, 1, 7.5, 20, 50 mg/kg/day): well-tolerated for 10 days
Histopathology, spleen ([5]; primarily at doses ≥20 mg/kg/day): minimal/mild lymphoid depletion of the marginal zone and periarteriolar lymphoid sheaths (PALS)
VEGF and ARG1 in MDSC differentiation assay [6]: suppressed both VEGF (FIG. 24A) and ARG1 (FIG. 24B)
immune suppressive environment [7]: reduces
Tumor volume, GL-261 glioma model [8]: significant reduction in tumor volume
half-life ([9]; dog, 5 mg/kg): ~7.1 h
half-life ([9]; monkey, 5 mg/kg): ~10.2 h
half-life ([9]; rat, 7.5 mg/kg): ~3.3 h
Infiltrating TAMs ([10]; FIG. 38A): the number of infiltrating TAMs was decreased
CD206 staining (M2 polarized suppressive macrophages) ([10]; FIG. 39): CD206 staining was reduced
M2 TAM differentiation (ARG1 levels) [11]: inhibited M2 TAM differentiation much more effectively than PI3K-δ inhibitor
Tumor volume, GL-261 syngeneic glioma model [12]: reduced tumor volume
Tumor growth, LLC tumor brei model [13]: reduced tumor growth by about the same amount
